Data set [1] has as its system RNA (G4C2)2 (SEQ ID NO: 8) G4. Put plainly: 1D 1H-NMR titration of RNA (G4C2)2 G4. The conditions noted are these: ratios 1:3, 1:5, 1:10. Type of data set: binding. As to the method: (§1) Single […] were purchased from Integrated DNA Technologies (IDT) and Takara. Single-strand DNA/RNA sample at 100 μM was then annealed by heating up to 95° C. for 15 mins, and slowly cooled to room temperature in the annealing buffer (70 mM KCl, 20 mM potassium phosphate (pH 7.0)) for overnight. The final NMR samples contained 0.1 mM DNA or RNA in 70 mM KCl and 20 mM potassium phosphate buffer (pH 7.0).
The 1D ^1H-NMR spectra were performed at 25° C. All compounds were dissolved in isotope-labeled d6-DMSO (Sigma-Aldrich) at about 50 mM concentration, working as stock solutions. To avoid chemical shift changes of DNA/RNA G4 resulted from d6-DMSO addition, […] d6-DMSO was added into 500 μL of 0.1 mM DNA/RNA G4 solution in the NMR buffer (20 mM potassium phosphate buffer and 70 mM KCl, pH 7.0, 10% D2O) and then 1D ^1H-NMR spectrum was recorded as a reference. During NMR titration experiments of adding each compound into the DNA/RNA G4 solution, the maximal volume of 10 μL of each compound in d6-DMSO solution was regarded as a final data point. […]

The test system of data set [2] is DNA (G4C2)2 (SEQ ID NO: 4) G4. Put plainly: 1D 1H-NMR titration of DNA (G4C2)2 G4. Type of data set: binding. To be noted: cA at 1:1, 1:5, 1:10. As to the method:
as §1
(§2) The 1D ^1H-NMR spectra were performed at 25° C. All compounds were dissolved in isotope-labeled d6-DMSO (Sigma-Aldrich) at about 50 mM concentration, working as stock solutions. To avoid chemical shift changes of DNA/RNA G4 resulted from d6-DMSO addition, […] d6-DMSO was added into 500 μL of 0.1 mM DNA/RNA G4 solution in the NMR buffer (20 mM potassium phosphate buffer and 70 mM KCl, pH 7.0, 10% D2O) and then 1D ^1H-NMR spectrum was recorded as a reference. During NMR titration experiments of adding each compound into the DNA/RNA G4 solution, the maximal volume of 10 μL of each compound in d6-DMSO solution was regarded as a final data point.
(§3) In addition to the four-repeat G4C2 DNA G4, there are parallel and hybrid G4 conformations formed simultaneously by the two-repeat G4C2 DNA^38,39. […]

Data set [3] has as its system human telomeric variant htel21_T18 G4. The experiment in a line: 1D 1H-NMR titration of human telomeric variant htel21_T18 G4. The conditions noted are these: cA at 1:10. Type of data set: binding. On the procedure: as §1, §2, §3
Data set [4] concerns human telomeric htel23 G4. The experiment in a line: 1D 1H-NMR titration of human telomeric htel23 G4. Type of data set: binding. The conditions noted are these: 1:10 titration. As to the method:
as §1, §2, §3

Data set [5] relates to DNA G-quadruplex formed by chicken DNA replication origin. Put plainly: 1D 1H-NMR titration of chicken DNA G-quadruplex. The data set is classed as binding. The conditions noted are these: 1:3 titration. On the procedure: as §1, §2, §3
Data set [6] has as its system G4C2 RNA foci in (G4C2)29 overexpressed Neuro2a cells. Put plainly: RNA fluorescent in situ hybridisation, RNA foci numbers. Type of data set: cell-based. The arrangement: CAGG (control probe) RNA foci numbers: dose or concentration left out as unconfirmed. To be noted: for G4C2 RNA foci numbers in cells: 1 g/ml treatment for 2 days; for CAGG (control probe) RNA foci numbers: treatment for 2 days. As to the method:
Neuro2a cells planted on coverslips were transfected with pHR-Tre3G-29xGGGGCC-12xMS2 plasmid (#99149), incubated for 2-3 days and then fixed with 4% paraformaldehyde for 15 min at room temperature. Cells were permeabilised with 0.1% TritonX-100 in PBS for 10 min before hybridisation. Target probe ([…]) (SEQ ID NO: 1) with a 5′-Cy3 and control probe ([…]) (SEQ ID NO: 2) with a 5′-Cy5 were added to the hybridisation solution (0.9M NaCl, 0.02M Tris-HCl, 0.01% SDS, 20% formamide). Cells were then incubated in the mixed solution at 46° C. for 3 h. Cells were washed three times in washing solution (0.02M Tris-HCl, 0.001% SDS, 5 mM EDTA) at 48° C., 15 min each time. Then, cells were stained with primary antibodies (Anti-DNA G-quadruplex (G4) antibody (Cat. No. MABE1126) or Anti-hnRNP H antibody (ab10374)) at 1:500 dilution and incubated at 4° C. overnight. In the next day, cells were washed three times with PBS (10 min each time), and then incubated with secondary antibodies (Alexa 488 anti-mouse for G4 or Alex 488 anti-rabbit for hnRNP H) at 1:500 dilution for 1 h at room temperature. Superfluous secondary antibodies were washed away with PBS for three times (10 min each time). Then cells were incubated with DAPI at 1:5000 dilution for 5 mins and washed with PBS once. Finally, cells on slides were air-dried, mounted in Hydromount medium and analysed by confocal microscopy (Leica, SP8).
Firstly, we confirmed that RNA foci were specifically observed in the (G4C2)29 (SEQ ID NO: 6) overexpressed Neuro2a cells (FIG. 8C).

The test system of the next data set is Neuro2a cells. Put plainly: Permeability on live cells (cell lysates analysed by UPLC-MS). Type of data set: in vitro ADME. To be noted: 10, 20 μg/ml; 24 h, 48 h; UPLC-MS of lysates. On the procedure: (§4) In addition, we also tested the permeability on live cells. Neuro2a cells treated with cA at different concentrations (10 μg/ml, 20 μg/ml) for different incubation time (24 h, 48 h) were lysed. Supernatants of cell lysates were collected and analyzed by UPLC-MS. Meanwhile, cell media from different treatment groups were used as control. […] In contrast, the intensity of cA signal was the same in the three corresponding cell media groups (FIG. 25, 4-6).

Data set [7] can be described thus: Parallel artificial membrane permeability assay (PAMPA). Type of data set: in vitro ADME. To be noted: PAMPA. As to the method:
500 μL of 500 μM test compound and 200 μM Equilibrium Standards for each test compound were prepared. 5 μL DMSO plus 245 μL PBS served as blank control. Firstly, 300 μL PBS was added to each well in the acceptor plate. With the donor plate in its tray, 5 μL 4% Lecithin in Dodecane was added directly to the well membranes of the donor plate. 200 μL of each 500 μM test compound was added to duplicate wells of the donor plate. The donor plate was carefully placed into the acceptor plate wells and incubated at 37° C. for 18 hours. Then the liquid in acceptor plate wells was collected as Acceptor Solution for analysis. Absorbance spectrum from 200 nm to 500 nm in 10 nm intervals was read to determine the peak absorbance of test compounds and blank control.
as §4
On the technique in general: The PAMPA barrier holds no transporters, so it reflects passive diffusion.

SMILES strings stand for the structures.

In the case of `CC(=O)Cc1cc2c(c(O)c1C(=O)O)-c1c(c(O)c3oc4c(O[C@@H]5OC(C(=O)O)=C[C@H](O)[C@H]5O)cccc4c(=O)c3c1O)CC2` [cA, chrexanthomycin A], the “binding to RNA (G4C2)2 G4 by NMR titration” value in data set [1] was “Chemical shift changes were observed”. The “binding to DNA (G4C2)2 G4 by NMR titration” value in data set [2] is given as “neither with 1:1 (light brown), 1:5 (blue) nor 1:10 (pink) titration of cA made significant chemical shift changes”. In addition, the “binding to htel21_T18 G4 by NMR titration” value in data set [3] is recorded as “no obvious chemical shift changes”. Further, the “binding to htel23 G4 by NMR titration” value in data set [4] is “no obvious chemical shift changes”. In addition, in data set [5], the “binding to chicken DNA G-quadruplex by NMR titration” value was “did not show binding”. Besides, in data set [6], the “G4C2 RNA foci numbers in cells” value is listed as “significantly reduced” and the “CAGG (control probe) RNA foci numbers” value was “seldomly changed”. Besides, the “entry into live cells” value in the data set with Neuro2a cells is “could penetrate cell membrane and enter into cells”.
`CC(=O)Cc1cc2c(c(O)c1C(=O)O)-c1c(c(O)c3oc4c(O[C@@H]5O[C@H](C(=O)O)[C@@H](O)[C@H](O)[C@H]5O)cccc4c(=O)c3c1O)CC2` [cC, chrexanthomycin C]: in data set [6], the “G4C2 RNA foci numbers in cells” value is “significantly reduced” and the “CAGG (control probe) RNA foci numbers” value is “seldomly changed”. Also, in data set [7], the “permeability (PAMPA)” value was “good permeability”.

These data come from patent US11820762B2, “Compounds as potential therapeutic agents targeting various neurodegenerative diseases” (The Hong Kong University of Science and Technology, priority 2020, dated 2023).
